# Test results published in ChEMBL document CHEMBL2074089, “Methotrexate is excreted into the bile by canalicular multispecific organic anion transporter in rats” (Cancer Res, 1997).
# B1: ATP-binding cassette sub-family C member 2 (Rattus norvegicus) (protein)
# chain: MDKFCNSTFWDLSLLESPEADLPLCFEQTVLVWIPLGFLWLLAPWQLYSVYRSRTKRSSITKFYLAKQVFVVFLLILAAIDLSLALTEDTGQATVPPVRYTNPILYLCTWLLVLAVQHSRQWCVRKNSWFLSLFWILSVLCGVFQFQTLIRALLKDSKSNMAYSYLFFVSYGFQIVLLILTAFSGPSDSTQTPSVTASFLSSITFSWYDRTVLKGYKHPLTLEDVWDIDEGFKTRSVTSKFEAAMTKDLQKARQAFQRRLQKSQRKPEATLHGLNKKQSQSQDVLVLEEAKKKSEKTTKDYPKSWLIKSLFKTFHVVILKSFILKLIHDLLVFLNPQLLKLLIGFVKSSNSYVWFGYICAILMFAVTLIQSFCLQSYFQHCFVLGMCVRTTVMSSIYKKALTLSNLARKQYTIGETVNLMSVDSQKLMDATNYMQLVWSSVIQITLSIFFLWRELGPSILAGVGVMVLLIPVNGVLATKIRNIQVQNMKNKDKRLKIMNEILSGIKILKYFAWEPSFQEQVQGIRKKELKNLLRFGQLQSLLIFILQITPILVSVVTFSVYVLVDSANVLNAEKAFTSITLFNILRFPLSMLPMVTSSILQASVSVDRLERYLGGDDLDTSAIRRVSNFDKAVKFSEASFTWDPDLEATIQDVNLDIKPGQLVAVVGTVGSGKSSLVSAMLGEMENVHGHITIQGSTAYVPQQSWIQNGTIKDNILFGSEYNEKKYQQVLKACALLPDLEILPGGDMAEIGEKGINLSGGQKQRVSLARAAYQDADIYILDDPLSAVDAHVGKHIFNKVVGPNGLLAGKTRIFVTHGIHFLPQVDEIVVLGKGTILEKGSYRDLLDKKGVFARNWKTFMKHSGPEGEATVNNDSEAEDDDDGLIPTMEEIPEDAASLAMRRENSLRRTLSRSSRSSSRRGKSLKNSLKIKNVNVLKEKEKEVEGQKLIKKEFVETGKVKFSIYLKYLQAVGWWSILFIILFYGLNNVAFIGSNLWLSAWTSDSDNLNGTNNSSSHRDMRIGVFGALGLAQGICLLISTLWSIYACRNASKALHGQLLTNILRAPMRFFDTTPTGRIVNRFSGDISTVDDLLPQTLRSWMMCFFGIAGTLVMICMATPVFAIIIIPLSILYISVQVFYVATSRQLRRLDSVTKSPIYSHFSETVTGLPIIRAFEHQQRFLAWNEKQIDINQKCVFSWITSNRWLAIRLELVGNLVVFCSALLLVIYRKTLTGDVVGFVLSNALNITQTLNWLVRMTSEAETNIVAVERISEYINVENEAPWVTDKRPPADWPRHGEIQFNNYQVRYRPELDLVLKGITCNIKSGEKVGVVGRTGAGKSSLTNCLFRILESAGGQIIIDGIDVASIGLHDLRERLTIIPQDPILFSGSLRMNLDPFNKYSDEEVWRALELAHLRSFVSGLQLGLLSEVTEGGDNLSIGQRQLLCLGRAVLRKSKILVLDEATAAVDLETDSLIQTTIRKEFSQCTVITIAHRLHTIMDSDKIMVLDNGKIVEYGSPEELLSNRGSFYLMAKEAGIENVNHTEL
# Legend:
# Format in all cases: functional, cell membranes, Sprague-Dawley, Bile canalicular membrane vesicle
# [1] = target: T1, ATP-binding cassette sub-family C member 2 (Rattus norvegicus, UniProt Q63120); experiment: TP_TRANSPORTER: inhibition of DNP-SG uptake in bile canalicular membrane vesicles from SD rat
# [2] = target: T1, ATP-binding cassette sub-family C member 2; experiment: TP_TRANSPORTER: inhibition of L-MTX uptake in bile canalicular membrane vesicles from SD rat
# [3] = substrate: CN(Cc1cnc2nc(N)nc(N)c2n1)c1ccc(C(=O)N[C@@H](CCC(=O)O)C(=O)O)cc1; experiment: (§1) TP_TRANSPORTER: uptake in bile canalicular membrane vesicles from SD rat
# [4] = substrate: N[C@@H](CCC(=O)N[C@H](CSc1ccc([N+](=O)[O-])cc1[N+](=O)[O-])C(=O)NCC(=O)O)C(=O)O; experiment: as §1
Molecule,Ki [1],Ki [2],Km [3],Km [4]
CN(Cc1cnc2nc(N)nc(N)c2n1)c1ccc(C(=O)N[C@@H](CCC(=O)O)C(=O)O)cc1 [METHOTREXATE],236 µM,326 µM,,
CN(Cc1cnc2nc(N)nc(N)c2n1)c1ccc(C(=O)N[C@H](CCC(=O)O)C(=O)O)cc1,,92.8 µM,,
B1,,,296 µM,10.7 µM
